Data set [1] is described as follows: Acute toxicity in C57BL/6J mice (Example 3). The class given is in vivo. The following applies: 24 h. On the procedure:
Two groups (n=5) of C57BL/6J mice received […] of 10 μM solutions of β-Gal that was either 1) prepared in sterile PBS or 2) dissolved in PFOc (1 mM PFNA) and extracted into sterile PBS. Due to the large solution volumes given (150 μL, ~15% of mouse blood volume), PFOc dispersed proteins were extracted into sterile saline before injection to avoid hyponatremia. Samples were administered by tail vein injection.
To assess acute toxicity, animals were intravenously administered solutions of β-Gal either prepared in sterile PBS or dissolved in PFOc (1 mM PFNA) and extracted into sterile PBS, as described above. After 24 hours, mice were sacrificed, and blood was collected via cardiac puncture. A minimum of 100 μL of whole blood was added to EDTA for complete blood count. The remainder was centrifuged (1000 rcf, 10 minutes) to isolate serum for chemistry analysis. Tissues (lungs, livers, kidneys, and spleens) from euthanized animals were collected and stored in 10% buffered-formalin immediately after euthanasia. […] from each organ were mounted onto glass slides and stained with Hematoxylin and Eosin (H&E). Four random fields in each section were examined under a microscope at 5× and 40× magnification. Tissue relevant clinical features were compared across samples. […]

For data set [2], the system named is tested proteins. Kind of data set: Induction of non-native protein secondary structure. On the procedure:
(§1) To explore PFNA-mediated changes in protein structure, dose-response circular dichroism (CD) studies were performed (FIG. 14A-14G). […] Remarkably, these structural changes endured even at sub-stoichiometric PFNA:protein ratios (see 0.001 mM PFNA in […]; protein concentration was constant at 0.01 mM).
Prior studies have shown ≥15 vol % of TFE in water, which represents a 2M total concentration, was required to induce protein structural transitions. […] In addition, PFNA appeared to favor modulation of […] structures over α-helices, which can be interpreted by monitoring changes in both ellipticity at 216 nm (FIG. 14H) and percentage of secondary structural motifs (FIG. 14I) relative to the native protein. […] The dose-dependent reduction in the signal after analyte injection may have been due to conformational change of the target protein, as has been observed in prior studies.

Data set [3] deals with T1, BSA (Bos taurus, UniProt P02769). The data set is described as follows: Surface plasmon resonance, BSA. The following applies: after reference correction. The class given is binding, bovine. The source says:
(§2) FIGS. 14A-14L depict circular dichroism spectra of Hb (FIG. 14A), GFP (FIG. 14B), BSA (FIG. 14C), β-Gal (FIG. 14D), rabbit serum IgG (FIG. 14E), transferrin (FIG. 14F), and urease (FIG. 14G) in the absence (black line) or presence (dashed lines) of PFNA. Increasing dash sequence indicated higher concentration of PFNA. FIG. 14H: Change in molar ellipticity at 216 nm (Δθ216) of PFNA-treated proteins, relative to native controls, as a function of increasing ligand concentration. FIG. 14I: Percentage change in secondary structural motifs of Hb, β-Gal and IgG between the native protein and 1 mM PFNA treated samples. β-sheet structures were further differentiated into parallel and antiparallel conformations. Hb, β-Gal and IgG were prioritized for analysis based on their significant spectral shift in the presence of 1 mM PFNA. FIGS. 14J-14L: Sensograms for BSA (FIG. 14J), β-gal (FIG. 14K), and IgG (FIG. 14L) showing relative response (R.U.) at 10, 25, 50, 75, and 100 μM.
To test this assertion, PFNA binding to three exemplary proteins, BSA, β-Gal and IgG, was studied via isothermal titration calorimetry (ITC) and surface plasmon resonance (SPR) techniques. […] SPR analysis yielded similar results, with sensorgrams (FIGS. 14J-14L) that diverged from a simple 1:1 ligand-protein model. […]
A general note: In SPR one partner is held on a chip, and binding of the other changes the refractive index at the surface.

Data set [4] deals with bovine serum albumin (BSA), β-Galactosidase (β-Gal), rabbit serum immunoglobulin (IgG), and bovine trypsin. The data set is described as follows: Dispersion efficiency of four model proteins in PFOc (Example 4). The following applies: PD:protein molar ratio 1000:1. The class given is physicochemical. On the procedure: These compounds were screened to evaluate their ability to disperse four model proteins, bovine serum albumin (BSA), β-Galactosidase (β-Gal), rabbit serum immunoglobulin (IgG), and bovine trypsin into the PFOc solvent. […] […] The samples were then briefly vortexed/sonicated then constantly mixed overnight to ensure proper fluorine dispersion. After that, samples were centrifuged at 1950 g for 5 minutes to remove non-dispersed portion, and 100 μL supernatant of dispersed protein sample was transferred into each well of 96-well plate. PFHx solvent was let evaporate at 37 °C for two hours. The remaining protein residue was redissolved in […] PBS, and an equal volume of Coomassie solution was added to the sample. In addition, protein prepared in PBS and PFHx (without PFNA) were also identically processed and included as positive and negative control. Lastly, the amount of protein was quantified by taking absorbance of converted Coomassie solution at 595 nm. Dispersion efficiency was calculated as follows:

For data set [5], the system named is β-gal. Kind of data set: Circular dichroism with PFNA, β-gal. The following applies: 0.001-1 mM PFNA.
Excerpt: as §2, §1

The target in data set [6] is T1, BSA. The data set is described as follows: Isothermal titration calorimetry, BSA. The class given is binding, bovine. The source says:
To test this assertion, PFNA binding to three exemplary proteins, BSA, β-Gal and IgG, was studied via isothermal titration calorimetry (ITC) and surface plasmon resonance (SPR) techniques. […] SPR analysis yielded similar results, with sensorgrams (FIGS. 14J-14L) that diverged from a simple 1:1 ligand-protein model. […] Similar phenomenon may explain the negative signals of the SPR data and further support the ability of PFNA to modulate the conformational plasticity of adsorbed proteins.
A general note: ITC needs no label: the signal is the heat of the interaction.

Data set [7] addresses bovine serum albumin (BSA) (Bos taurus, UniProt P02769). Kind of data set: Circular dichroism with PFNA, BSA.
Excerpt: as §2, §1
Background: Circular dichroism is widely used to follow secondary structure.

The test system of data set [8] is urease. Kind of data set: Circular dichroism with PFNA, urease.
Excerpt: as §2, §1

T1 sequence (P02769 25-607): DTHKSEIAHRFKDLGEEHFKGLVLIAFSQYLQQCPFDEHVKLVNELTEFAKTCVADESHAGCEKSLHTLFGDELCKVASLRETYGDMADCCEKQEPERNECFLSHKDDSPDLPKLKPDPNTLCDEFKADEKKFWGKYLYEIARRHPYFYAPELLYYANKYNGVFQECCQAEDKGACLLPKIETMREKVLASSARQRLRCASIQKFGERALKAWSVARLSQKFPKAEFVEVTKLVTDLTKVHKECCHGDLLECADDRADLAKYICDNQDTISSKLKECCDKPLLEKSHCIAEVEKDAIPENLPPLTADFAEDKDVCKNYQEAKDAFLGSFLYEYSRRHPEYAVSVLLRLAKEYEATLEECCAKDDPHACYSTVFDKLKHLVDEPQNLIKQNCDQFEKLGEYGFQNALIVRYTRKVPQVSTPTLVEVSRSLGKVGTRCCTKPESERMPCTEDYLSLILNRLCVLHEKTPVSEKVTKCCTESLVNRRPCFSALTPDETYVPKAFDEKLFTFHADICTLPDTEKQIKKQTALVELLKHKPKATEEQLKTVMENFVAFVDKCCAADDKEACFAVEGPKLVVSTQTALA
bovine serum albumin (BSA), sequence (P02769 25-607): as above

Consider “β-Gal: β-Galactosidase (β-Gal), dissolved in PBS/saline or dispersed in PFOc”, for which, in data set [1] (PFOc β-Gal, i.v.), the “BUN, RBC, HGB, HCT versus sham saline injection control” value was “none of these markers were statistically different”. In data set [1] (lung, kidney, liver, spleen, β-Gal from PFOc), the histologic organ analyses entry is “did not identify signs of necrosis, cellular infiltration, inflammation, or hemorrhage”.

As for `O=C(O)C(F)(F)C(F)(F)C(F)(F)C(F)(F)C(F)(F)C(F)(F)C(F)(F)C(F)(F)F` [Compound 7, perfluoronanonic acid], the “concentration sufficient to induce ordered non-native structure” value in data set [2] (many of the tested proteins) came to 0.001 mM. Further, in data set [2] (relative to trifluoroethanol), the “increase in potency in inducing non-native protein secondary structure relative to TFE” value was 10^6. Moreover, the SPR response result in data set [3] is “negative responses”. Besides, in data set [4], the dispersion efficiency is reported as no more than 50%. The “CD structural change, β-gal” value in data set [5] is “marked increase in β-sheet content”. Also, in data set [6], the “evolution of heat (ITC)” value is given as “no significant evolution of heat”. The “CD structural profile, BSA” value in data set [7] is given as “remained largely unchanged”. In addition, the “CD structural profile, urease” value in data set [8] is listed as “remained largely unchanged”.

Values taken from patent US20260365692A1, “COMPOSITIONS COMPRISING PROTEINS DISSOLVED IN FLUORINATED SOLVENTS, AND METHODS OF MAKING AND USING THE SAME” (priority 2022, published 2026).
